Experiments:
Assay in all cases: in vitro susceptibility, MIC by mini broth dilution
Format in all cases: cell-based
[1] = system: Actinobacillus pleuropneumoniae CVCC262; conditions: strain CVCC262
Outline: (§1)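 Bacteria were revived from −20° C stocks and streaked twice on solid medium, each time grown 20 h at 35° C. Compounds were double-diluted in DMSO across 11 wells and tested in two parallel rows. The bacterial suspension was diluted 1:200 with liquid medium before MIC determination by mini broth dilution.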

[2] = system: Pasteurella multocida CVCC399; conditions: strain CVCC399
Outline: as §1

Haemophilus parasuis = system: Haemophilus parasuis
Outline: as §1

[3] = system: Streptococcus equines CVCC556; conditions: strain CVCC556
Outline: as §1

[4] = system: Staphylococcus aureus CVCC26003; conditions: strain CVCC26003
Outline: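 MICs were determined by mini broth dilution under NCCLS standards in CAMHB, using revived S. aureus CVCC26003 subcultured 20 h at 35° C. Compounds were two-fold serially diluted in DMSO across 11 wells, with duplicate rows. Bacterial suspension was diluted 1:200 in medium before inoculation.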

With CC[C@H]1OC(=O)[C@H](C)[C@@H](O[C@H]2C[C@@](C)(OC)[C@](O)(CNc3ccnc(Cl)c3)[C@H](C)O2)[C@H](C)[C@@H](O[C@@H]2O[C@H](C)C[C@H](N(C)C)[C@H]2O)[C@](C)(O)C[C@@H](C)NC[C@H](C)[C@@H](O)[C@]1(C)O [syzx-38] the “MIC values, Actinobacillus pleuropneumoniae CVCC262” value [1] was 32 ug/mi, the “MIC values, Pasteurella multocida CVCC399” value [2] was 0.5 ug/mi and the “MIC values, Haemophilus parasuis” value (Haemophilus parasuis) was 0.5 ug/mi. For the same compound, the “MIC values, Streptococcus equines CVCC556” value [3] was 0.5 ug/mi and the “MIC values, Staphylococcus aureus CVCC26003” value [4] was 1 ug/mi.

For CCCN1C[C@H](C)[C@@H](O)[C@](C)(O)[C@@H](CC)OC(=O)[C@H](C)[C@@H](O[C@H]2C[C@@](C)(OC)[C@](O)(CNCc3cccc(OC)c3)[C@H](C)O2)[C@H](C)[C@@H](O[C@@H]2O[C@H](C)C[C@H](N(C)C)[C@H]2O)[C@](C)(O)C[C@H]1C [syzx-127], the “MIC values, Actinobacillus pleuropneumoniae CVCC262” value [1] was 1 ug/mi, the “MIC values, Pasteurella multocida CVCC399” value [2] was 8 ug/mi and the “MIC values, Haemophilus parasuis” value (Haemophilus parasuis) was 1 ug/mi. For the same compound, the “MIC values, Streptococcus equines CVCC556” value [3] was 0.25 ug/mi and the “MIC values, Staphylococcus aureus CVCC26003” value [4] was 4 ug/mi.

CC[C@H]1OC(=O)[C@H](C)[C@@H](O[C@H]2C[C@@](C)(OC)[C@](O)(CNCc3ccc(F)cc3F)[C@H](C)O2)[C@H](C)[C@@H](O[C@@H]2O[C@H](C)C[C@H](N(C)C)[C@H]2O)[C@](C)(O)C[C@@H](C)NC[C@H](C)[C@@H](O)[C@]1(C)O [syzx-31] was tested, and the “MIC values, Actinobacillus pleuropneumoniae CVCC262” value [1] was 1 ug/mi, the “MIC values, Pasteurella multocida CVCC399” value [2] was “≦0.25 ug/mi” and the “MIC values, Haemophilus parasuis” value (Haemophilus parasuis) was “≦0.25 ug/mi”. The “MIC values, Streptococcus equines CVCC556” value [3] was “≦0.25 ug/mi” and the “MIC values, Staphylococcus aureus CVCC26003” value [4] was “≦0.25 ug/mi”.

In the case of CCCN1C[C@H](C)[C@@H](O)[C@](C)(O)[C@@H](CC)OC(=O)[C@H](C)[C@@H](O[C@H]2C[C@@](C)(OC)[C@](O)(CNCCOCCO)[C@H](C)O2)[C@H](C)[C@@H](O[C@@H]2O[C@H](C)C[C@H](N(C)C)[C@H]2O)[C@](C)(O)C[C@H]1C [syzx-143], the “MIC values, Actinobacillus pleuropneumoniae CVCC262” value [1] is reported as 0.25 ug/mi, the “MIC values, Pasteurella multocida CVCC399” value [2] is reported as 1 ug/mi and the “MIC values, Haemophilus parasuis” value (Haemophilus parasuis) is reported as 0.25 ug/mi. For the same compound, the “MIC values, Streptococcus equines CVCC556” value [3] was 0.25 ug/mi and the “MIC values, Staphylococcus aureus CVCC26003” value [4] was 0.25 ug/mi.

With CC[C@H]1OC(=O)[C@H](C)[C@@H](O[C@H]2C[C@@](C)(OC)[C@](O)(CNCCN3CCCC3)[C@H](C)O2)[C@H](C)[C@@H](O[C@@H]2O[C@H](C)C[C@H](N(C)C)[C@H]2O)[C@](C)(O)C[C@@H](C)NC[C@H](C)[C@@H](O)[C@]1(C)O [syzx-90] the “MIC values, Actinobacillus pleuropneumoniae CVCC262” value [1] was 0.5 ug/mi, the “MIC values, Pasteurella multocida CVCC399” value [2] was 2 ug/mi and the “MIC values, Haemophilus parasuis” value (Haemophilus parasuis) was 2 ug/mi. For the same compound, the “MIC values, Streptococcus equines CVCC556” value [3] was 0.5 ug/mi and the “MIC values, Staphylococcus aureus CVCC26003” value [4] was 2 ug/mi.

With CC[C@H]1OC(=O)[C@H](C)[C@@H](O[C@H]2C[C@@](C)(OC)[C@](O)(CNCCCO)[C@H](C)O2)[C@H](C)[C@@H](O[C@@H]2O[C@H](C)C[C@H](N(C)C)[C@H]2O)[C@](C)(O)C[C@@H](C)NC[C@H](C)[C@@H](O)[C@]1(C)O [syzx-46, (2R,3S,4R,5S,8R,10R,11R,12S,13S,14R)-13-[(2,6-dideoxy-3-C-methyl-3-O-methyl-4-C-[(3-hydroxy-propylamino)-methyl]-α-L-ribopyranosyl)oxy]-2-ethyl-3,4,10-trihydroxy-3,5,8,10,12,14-hexamethyl-11-[[3,4,6-trideoxy-3-(dimethylamino)-β-D-xylo-hexopyranosy]oxy]-1-oxa-7-azacyclopentadecan-15-one] the “MIC values, Actinobacillus pleuropneumoniae CVCC262” value [1] was 32 ug/mi, the “MIC values, Pasteurella multocida CVCC399” value [2] was 4 ug/mi and the “MIC values, Haemophilus parasuis” value (Haemophilus parasuis) was “≦0.25 ug/mi”. The “MIC values, Streptococcus equines CVCC556” value [3] was 2 ug/mi and the “MIC values, Staphylococcus aureus CVCC26003” value [4] was 1 ug/mi.

CCCN1C[C@H](C)[C@@H](O)[C@](C)(O)[C@@H](CC)OC(=O)[C@H](C)[C@@H](O[C@H]2C[C@@](C)(OC)[C@](O)(CNCCCN3CCOCC3)[C@H](C)O2)[C@H](C)[C@@H](O[C@@H]2O[C@H](C)C[C@H](N(C)C)[C@H]2O)[C@](C)(O)C[C@H]1C [syzx-188] was tested, and the “MIC values, Actinobacillus pleuropneumoniae CVCC262” value [1] was 0.5 ug/mi, the “MIC values, Pasteurella multocida CVCC399” value [2] was 1 ug/mi and the “MIC values, Haemophilus parasuis” value (Haemophilus parasuis) was 0.5 ug/mi. For the same compound, the “MIC values, Streptococcus equines CVCC556” value [3] was 0.25 ug/mi and the “MIC values, Staphylococcus aureus CVCC26003” value [4] was 0.5 ug/mi.

CCCN1C[C@H](C)[C@@H](O)[C@](C)(O)[C@@H](CC)OC(=O)[C@H](C)[C@@H](O[C@H]2C[C@@](C)(OC)[C@](O)(CNCCCCO)[C@H](C)O2)[C@H](C)[C@@H](O[C@@H]2O[C@H](C)C[C@H](N(C)C)[C@H]2O)[C@](C)(O)C[C@H]1C [syzx-133] was tested, and the “MIC values, Actinobacillus pleuropneumoniae CVCC262” value [1] was 1 ug/mi, the “MIC values, Pasteurella multocida CVCC399” value [2] was 2 ug/mi and the “MIC values, Haemophilus parasuis” value (Haemophilus parasuis) was 0.5 ug/mi. The “MIC values, Streptococcus equines CVCC556” value [3] was 0.5 ug/mi and the “MIC values, Staphylococcus aureus CVCC26003” value [4] was 1 ug/mi.

With CC[C@H]1OC(=O)[C@H](C)[C@@H](O[C@H]2C[C@@](C)(OC)[C@](O)(CNC(C)C(C)(C)C)[C@H](C)O2)[C@H](C)[C@@H](O[C@@H]2O[C@H](C)C[C@H](N(C)C)[C@H]2O)[C@](C)(O)C[C@@H](C)NC[C@H](C)[C@@H](O)[C@]1(C)O (stereo partly drawn) [syzx-100, (2R,3S,4R,5S,8R,10R,11R,12S,13S,14R)-13-[(2,6-dideoxy-3-C-methyl-3-O-methyl-4-C-[(1,2,2-trimethyl-propylamino)-methyl]-α-L-ribopyranosyl)oxy]-2-ethyl-3,4,10-trihydroxy-3,5,8,10,12,14-hexamethyl-11-[[3,4,6-trideoxy-3-(dimethylamino)-β-D-xylo-hexopyranosy]oxy]-1-oxa-7-azacyclopentadecan-15-one] the “MIC values, Actinobacillus pleuropneumoniae CVCC262” value [1] was 1 ug/mi, the “MIC values, Pasteurella multocida CVCC399” value [2] was 0.5 ug/mi and the “MIC values, Haemophilus parasuis” value (Haemophilus parasuis) was 2 ug/mi. The “MIC values, Streptococcus equines CVCC556” value [3] was 2 ug/mi and the “MIC values, Staphylococcus aureus CVCC26003” value [4] was 1 ug/mi.

CCCN1C[C@H](C)[C@@H](O)[C@](C)(O)[C@@H](CC)OC(=O)[C@H](C)[C@@H](O[C@H]2C[C@@](C)(OC)[C@](O)(CNc3ccnc(Cl)c3)[C@H](C)O2)[C@H](C)[C@@H](O[C@@H]2O[C@H](C)C[C@H](N(C)C)[C@H]2O)[C@](C)(O)C[C@H]1C [syzx-138] was tested, and the “MIC values, Actinobacillus pleuropneumoniae CVCC262” value [1] was 2 ug/mi, the “MIC values, Pasteurella multocida CVCC399” value [2] was 8 ug/mi and the “MIC values, Haemophilus parasuis” value (Haemophilus parasuis) was 2 ug/mi. For the same compound, the “MIC values, Streptococcus equines CVCC556” value [3] was 0.5 ug/mi and the “MIC values, Staphylococcus aureus CVCC26003” value [4] was 2 ug/mi.

In the case of CCCN1C[C@H](C)[C@@H](O)[C@](C)(O)[C@@H](CC)OC(=O)[C@H](C)[C@@H](O[C@H]2C[C@@](C)(OC)[C@](O)(CNc3ccc(OC)cc3)[C@H](C)O2)[C@H](C)[C@@H](O[C@@H]2O[C@H](C)C[C@H](N(C)C)[C@H]2O)[C@](C)(O)C[C@H]1C [syzx-183], the “MIC values, Actinobacillus pleuropneumoniae CVCC262” value [1] is reported as 0.5 ug/mi, the “MIC values, Pasteurella multocida CVCC399” value [2] is reported as 2 ug/mi and the “MIC values, Haemophilus parasuis” value (Haemophilus parasuis) is reported as 0.25 ug/mi. The “MIC values, Streptococcus equines CVCC556” value [3] was 0.25 ug/mi and the “MIC values, Staphylococcus aureus CVCC26003” value [4] was 0.25 ug/mi.
